Measured values reported in PubChem BioAssay AID330 (DTP/NCI, 2004).
“And” between values parts separate entries of the source, which are not always exact repeats. Equal entries are not always repeated. Inconclusive results and toxic doses are left out. The calls were made as follows: active = survival T/C of 150% or more; inactive = T/C below 125% in these data.

Tested on: P388 leukemia ip, CD2F1 mice, survival T/C
Experiment: NCI In Vivo Anticancer Drug Screen. Data for tumor model P388 Leukemia (intraperitoneal) in CD2F1 (CDF1) mice
Details: endpoint: median survival time, higher = longer survival
Procedure, shortened: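 Mice carrying the transplanted tumor received test compound or vehicle. Survival was recorded in each group, and the value is the treated-group measurement divided by that of the vehicle-treated control group.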

[1] = dose: 60.0 mg/kg/injection, schedule: Q01DX005 (ip), vehicle: saline with Tween-80
[2] = dose: 120.0 mg/kg/injection, schedule: Q01DX005 (ip), vehicle: saline with Tween-80
[3] = dose: 50.0 mg/kg/injection, schedule: Q01DX005 (ip), vehicle: saline
[4] = dose: 100.0 mg/kg/injection, schedule: Q01DX005 (ip), vehicle: saline
[5] = dose: 200.0 mg/kg/injection, schedule: Q01DX005 (ip), vehicle: saline
[6] = dose: 50.0 mg/kg/injection, schedule: Q01DX009 (ip), vehicle: saline with Tween-80
[7] = dose: 100.0 mg/kg/injection, schedule: Q01DX009 (ip), vehicle: saline with Tween-80
[8] = dose: 25.0 mg/kg/injection, schedule: Q01DX005 (ip), vehicle: saline
[9] = dose: 240.0 mg/kg/injection, schedule: Q01DX005 (ip), vehicle: saline with Tween-80
[10] = dose: 50.0 mg/kg/injection, schedule: Q01DX005 (ip), vehicle: saline with Tween-80
[11] = dose: 100.0 mg/kg/injection, schedule: Q01DX005 (ip), vehicle: saline with Tween-80
[12] = dose: 60.0 mg/kg/injection, schedule: Q01DX005 (ip), vehicle: saline
[13] = dose: 120.0 mg/kg/injection, schedule: Q01DX005 (ip), vehicle: saline
[14] = dose: 240.0 mg/kg/injection, schedule: Q01DX005 (ip), vehicle: saline
[15] = dose: 50.0 mg/kg/injection, schedule: Q01DX009 (ip), vehicle: Klucel (hydroxypropylcellulose) (HPC)
[16] = dose: 200.0 mg/kg/injection, schedule: Q01DX009 (ip), vehicle: Klucel (hydroxypropylcellulose) (HPC)
[17] = dose: 25.0 mg/kg/injection, schedule: Q01DX005 (ip), vehicle: Klucel (hydroxypropylcellulose) (HPC)
[18] = dose: 50.0 mg/kg/injection, schedule: Q01DX005 (ip), vehicle: Klucel (hydroxypropylcellulose) (HPC)
[19] = dose: 100.0 mg/kg/injection, schedule: Q01DX005 (ip), vehicle: Klucel (hydroxypropylcellulose) (HPC)
[20] = dose: 200.0 mg/kg/injection, schedule: Q01DX005 (ip), vehicle: Klucel (hydroxypropylcellulose) (HPC)
[21] = dose: 100.0 mg/kg/injection, schedule: Q04DX002 (ip), vehicle: saline with Tween-80
[22] = dose: 200.0 mg/kg/injection, schedule: Q04DX002 (ip), vehicle: saline with Tween-80
[23] = dose: 200.0 mg/kg/injection, schedule: Q01DX009 (ip), vehicle: saline with Tween-80
[24] = dose: 200.0 mg/kg/injection, schedule: Q01DX005 (ip), vehicle: saline with Tween-80

Measured: T/C

CC12CCC(S)CC1=CCC1C2CCC2(C)/C(=N/NC(N)=S)CCC12 (stereo unspecified)
inactive: dose: 25.0 mg/kg/injection, schedule: Q01DX009 (ip), vehicle: distilled water + Tween-80 105 % of control | dose: 50.0 mg/kg/injection, schedule: Q01DX009 (ip), vehicle: distilled water + Tween-80 100 % of control | dose: 100.0 mg/kg/injection, schedule: Q01DX009 (ip), vehicle: distilled water + Tween-80 105 % of control | dose: 200.0 mg/kg/injection, schedule: Q01DX009 (ip), vehicle: distilled water + Tween-80 98 % of control | dose: 400.0 mg/kg/injection, schedule: Q01DX009 (ip), vehicle: distilled water + Tween-80 107 % of control

Cc1ccc(S(=O)(=O)NC(=O)NC(=S)c2cccc3ccccc23)cc1
inactive: dose: 100.0 mg/kg/injection, schedule: Q01DX001 (ip), vehicle: saline with Tween-80 101 % of control | dose: 200.0 mg/kg/injection, schedule: Q01DX001 (ip), vehicle: saline with Tween-80 99 % of control | dose: 400.0 mg/kg/injection, schedule: Q01DX001 (ip), vehicle: saline with Tween-80 102 % of control

CCOC(=O)c1c(C)[nH]c(-c2ccccc2)c1NS(=O)(=O)c1ccc(N)cc1
inactive: [1] 93 % of control | [2] 94 % of control

NC(=N\N=C\C(O)C(O)C(O)C(O)C(=O)O)/C(N)=N/N=C/C(O)C(O)C(O)C(O)C(=O)O (stereo unspecified)
inactive: [3] 101 % of control | [4] 104 % of control | [5] 101 % of control

O=c1ccc(N=Nc2cccc([N+](=O)[O-])c2)ccc1O
inactive: dose: 25.0 mg/kg/injection, schedule: Q01DX009 (ip), vehicle: saline with Tween-80 107 % of control | [6] 104 % of control | [7] 104 % of control

O=C1NC2CCCC1C(c1ccccc1)NC2c1ccccc1 (stereo unspecified)
inactive: dose: 100.0 mg/kg/injection, schedule: Q04DX003 (ip), vehicle: suspension in saline 98 % of control | dose: 200.0 mg/kg/injection, schedule: Q04DX003 (ip), vehicle: suspension in saline 99 % of control | dose: 400.0 mg/kg/injection, schedule: Q04DX003 (ip), vehicle: suspension in saline 100 % of control

CCN(CC)CCCC(C)n1c2nc(=O)[nH]c(=O)c-2nc2cc(Cl)ccc21 (stereo unspecified)
inactive: dose: 12.5 mg/kg/injection, schedule: Q01DX005 (ip), vehicle: saline 98 % of control | [8] 104 % of control | [3] 117 % of control and 119 % of control

NC(=O)c1c(-c2ccccc2)cn2c(C(=O)O)ccnc12
inactive: [1] 98 % of control | [2] 98 % of control | [9] 102 % of control

Nc1nc2nc(/N=N/SCCC(=O)O)[nH]c2c(=O)[nH]1
inactive: [10] 105 % of control | [11] 108 % of control

O=C1NC(=O)C2C3CCC(O3)C12 (stereo unspecified)
inactive: [3] 106 % of control and 99 % of control | [1] 94 % of control | [12] 101 % of control | [4] 106 % of control and 98 % of control | [2] 100 % of control | [13] 102 % of control | [9] 106 % of control | [14] 92 % of control

CN(CS(=O)(=O)c1ccccc1)CS(=O)(=O)c1ccccc1
inactive: dose: 60.0 mg/kg/injection, schedule: Q01DX005 (ip), vehicle: Klucel (hydroxypropylcellulose) (HPC) 110 % of control | dose: 120.0 mg/kg/injection, schedule: Q01DX005 (ip), vehicle: Klucel (hydroxypropylcellulose) (HPC) 105 % of control | dose: 240.0 mg/kg/injection, schedule: Q01DX005 (ip), vehicle: Klucel (hydroxypropylcellulose) (HPC) 108 % of control

CC(C)(C)n1nnnc1N
inactive: dose: 12.5 mg/kg/injection, schedule: Q01DX009 (ip), vehicle: Klucel (hydroxypropylcellulose) (HPC) 100 % of control | dose: 25.0 mg/kg/injection, schedule: Q01DX009 (ip), vehicle: Klucel (hydroxypropylcellulose) (HPC) 94 % of control | [15] 105 % of control and 112 % of control | [16] 103 % of control

C1=CNc2ccccc2N=C1
inactive: dose: 50.0 mg/kg/injection, schedule: Q01DX009 (ip), vehicle: saline 103 % of control | dose: 100.0 mg/kg/injection, schedule: Q01DX009 (ip), vehicle: saline 112 % of control | dose: 200.0 mg/kg/injection, schedule: Q01DX009 (ip), vehicle: saline 99 % of control

Cc1ccc2c(N=Nc3ccc(C(=N)N)cc3)ccc(O)c2n1
inactive: [17] 104 % of control | [18] 113 % of control | [19] 111 % of control | [20] 105 % of control

COC(=O)c1nnn(-c2ccc(Cl)cc2Cl)c1N
inactive: [1] 103 % of control | [2] 103 % of control | [9] 122 % of control

CC(OC(C(O)C=O)C(O)C(O)CO)C(=O)N[C@@H](C)C(=O)O (stereo partly specified)
inactive: [1] 101 % of control | [2] 100 % of control | [9] 100 % of control

CC(=O)C1C(=O)C(=O)N(c2ccccc2[N+](=O)[O-])C1=O (stereo unspecified)
inactive: dose: 12.5 mg/kg/injection, schedule: Q01DX005 (ip), vehicle: saline with Tween-80 101 % of control | dose: 25.0 mg/kg/injection, schedule: Q01DX005 (ip), vehicle: saline with Tween-80 107 % of control | [10] 100 % of control and 113 % of control

C[n+]1c(-c2ccc(/C=N/NC(=O)c3cc(O)c(C(=O)N/N=C/c4ccc(-c5cn6ccccc6[n+]5C)cc4)cc3O)cc2)cn2ccccc21
inactive: [1] 105 % of control | [2] 105 % of control

O=C1CSC(c2cccnc2)N1CCN1C(=O)CSC1c1cccnc1 (stereo unspecified)
inactive: [1] 105 % of control | [21] 112 % of control | [2] 105 % of control | [22] 112 % of control | [9] 101 % of control | dose: 400.0 mg/kg/injection, schedule: Q04DX002 (ip), vehicle: saline with Tween-80 109 % of control

COc1cc(CC2NCCc3cc(O)ccc32)cc(OC)c1OC (stereo unspecified)
inactive: [15] 103 % of control | dose: 100.0 mg/kg/injection, schedule: Q01DX009 (ip), vehicle: Klucel (hydroxypropylcellulose) (HPC) 99 % of control | [16] 102 % of control

Cc1ccc(C(=N)c2ccccc2Cc2cccc3ccccc23)c(C)c1
inactive: [6] 92 % of control | [7] 94 % of control | [23] 96 % of control

CSc1nnc(C2CCC(=O)N2Cc2ccccc2)o1 (stereo unspecified)
inactive: [12] 105 % of control | [13] 102 % of control | [14] 104 % of control

CCCCN(CCCC)C(=O)C(C)OC(C)=O (stereo unspecified)
inactive: [8] 95 % of control | [3] 95 % of control | [4] 108 % of control | [5] 105 % of control

COC(=O)N1C(=O)CO[C@@H]1C(C)(C)C
inactive: [1] 103 % of control | [2] 99 % of control | [9] 104 % of control

CC(C)C1SCC(=O)N1N1C(=O)CSC1C(C)C (stereo unspecified)
inactive: [10] 94 % of control | [11] 93 % of control | [24] 98 % of control

O=C(NC(C(=O)O)C1CC(Cl)=NO1)OCc1ccc([N+](=O)[O-])cc1 (stereo unspecified)
inactive: dose: 6.2 mg/kg/injection, schedule: Q04DX003 (ip), vehicle: other 108 % of control | dose: 12.5 mg/kg/injection, schedule: Q04DX003 (ip), vehicle: other 117 % of control

CSc1nc(C)c(C(=O)CCN2CCOCC2)s1
inactive: [12] 117 % of control | [13] 105 % of control

COC(=O)C1=C(\OC)c2c(ccc(OC)c2OC)C(=O)N2CCc3cc4c(cc3\C2=C\1C(=O)OC)OCO4
inactive: dose: 50.0 mg/kg/injection, schedule: Q04DX002 (ip), vehicle: saline with Tween-80 103 % of control | [21] 105 % of control | [22] 94 % of control

c1cc[c]([GeH][c]2ccccc2)cc1.c1cc[c]([GeH][c]2ccccc2)cc1
inactive: dose: 12.5 mg/kg/injection, schedule: Q01DX005 (ip), vehicle: Klucel (hydroxypropylcellulose) (HPC) 101 % of control | [17] 97 % of control | [18] 100 % of control and 101 % of control | [19] 99 % of control | [20] 100 % of control

CCSC(C(OC(C)=O)C(OC(C)=O)C(OC(C)=O)C(COC(C)=O)OC(C)=O)n1cnc2c(Cl)ncnc21 (stereo unspecified)
inactive: [10] 100 % of control | [11] 90 % of control | [24] 96 % of control

CCOC(=O)c1ccc(NC(CCl)=NC(C)(C)C)cc1
inactive: [6] 86 % of control | [7] 100 % of control | [23] 90 % of control

COc1cc(C2c3cc(OS(=O)(=O)c4ccc(C)cc4)c(OC)cc3CC3C(=O)OCC32)ccc1OS(=O)(=O)c1ccc(C)cc1 (stereo unspecified)
inactive: [10] 91 % of control and 92 % of control | [11] 91 % of control | [24] 91 % of control
